Experiments:
Type in all cases: cell-based
[1] = molecular target: T1, rat bone PTH/PTHrP receptor (Rattus norvegicus, UniProt P25961, E586G); test: Intracellular free calcium, COS-7 cells expressing R15B; settings: COS-7 cells expressing rat receptor
T1 construct: expressed in transfected cells; host or cells: COS / COS-7 cells, transient, plasmid R15B (pcDNA I)
T1 sequence (P25961 27-591 E586G): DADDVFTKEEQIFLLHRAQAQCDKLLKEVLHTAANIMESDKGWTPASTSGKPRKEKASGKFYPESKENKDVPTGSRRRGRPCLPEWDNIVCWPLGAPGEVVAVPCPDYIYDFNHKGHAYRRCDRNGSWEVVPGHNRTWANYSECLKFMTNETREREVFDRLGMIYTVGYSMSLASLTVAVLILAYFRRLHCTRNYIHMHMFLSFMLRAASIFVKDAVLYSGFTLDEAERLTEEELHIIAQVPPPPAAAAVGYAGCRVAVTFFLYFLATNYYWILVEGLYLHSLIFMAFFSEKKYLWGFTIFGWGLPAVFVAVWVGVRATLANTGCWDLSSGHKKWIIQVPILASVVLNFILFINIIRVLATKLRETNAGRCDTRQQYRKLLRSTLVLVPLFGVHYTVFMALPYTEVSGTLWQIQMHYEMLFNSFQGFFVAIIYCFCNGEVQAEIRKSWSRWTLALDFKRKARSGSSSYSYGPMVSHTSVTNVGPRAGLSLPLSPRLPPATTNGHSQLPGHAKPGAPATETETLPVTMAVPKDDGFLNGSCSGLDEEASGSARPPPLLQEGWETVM
Experimental: (§1) Details of the methodology are:
(§2) Coverslips plated with COS cells were incubated in Fura-2 AM loading buffer containing, in mM: HEPES (N-[2-Hydroxyethyl]piperazine-N′-[2-ethanesulfonic acid]), 20; CaCl2, 1; KCl 5; NaCl, 145; MgSO4, 0.5; NaHCO3, 25; K2HPO4, 1.4; glucose, 10; and Fura-2 AM 91-(2-5′-carboxyoxazol-2′-yl)-6-aminobenzofuran-5oxy-(2′-amino-5′-methylphenoxy)ethane-N,N,N′,N′-tetraaecetic acid acetomethoxy ester), 0.5; at 37° C. at pH7.4, aerated with 95% air and 5% CO2 for 45 minutes. Cells loaded with Fura-2 AM were then washed with a modified Krebs-Heinseleit (KH) buffer containing, in mM: HEPES, 20; CaCl2, 1; KCl, 5; NaCl, 145; MgSO4, 0.5; Na2HPO4, 1; glucose, 5; pH7.4. To check that cleavage of the ester occurred, the excitation spectra after different times of Fura-2 AM incubation were measured.
(§3) To measure fluorescence of individual cells, the cover slips were placed in a microscope tissue chamber (Biophysica Technologies, Inc., MD). The chamber consisted of a shallow, sloped compartment made of Teflon with a silicone rubber seal. The cover slips served as the bottom of the chamber. A heater/cooler ring was encased in the silicone rubber which sealed the coverslip in place.

[2] = molecular target: T2, human kidney PTH/PTHrP receptor (Homo sapiens, UniProt Q03431, L389Q); test: Intracellular free calcium, COS-7 cells expressing human receptor
T2 construct: The full-length human kidney PTH/PTHrP receptor cDNA, HKrk, was constructed using the BamHI/PvuII fragment of PCR clone #2 and HK-2; expressed in transfected cells; host or cells: COS-7 cells, transient (DEAE/Dextran), pcDNAI
T2 sequence (Q03431 27-593 L389Q): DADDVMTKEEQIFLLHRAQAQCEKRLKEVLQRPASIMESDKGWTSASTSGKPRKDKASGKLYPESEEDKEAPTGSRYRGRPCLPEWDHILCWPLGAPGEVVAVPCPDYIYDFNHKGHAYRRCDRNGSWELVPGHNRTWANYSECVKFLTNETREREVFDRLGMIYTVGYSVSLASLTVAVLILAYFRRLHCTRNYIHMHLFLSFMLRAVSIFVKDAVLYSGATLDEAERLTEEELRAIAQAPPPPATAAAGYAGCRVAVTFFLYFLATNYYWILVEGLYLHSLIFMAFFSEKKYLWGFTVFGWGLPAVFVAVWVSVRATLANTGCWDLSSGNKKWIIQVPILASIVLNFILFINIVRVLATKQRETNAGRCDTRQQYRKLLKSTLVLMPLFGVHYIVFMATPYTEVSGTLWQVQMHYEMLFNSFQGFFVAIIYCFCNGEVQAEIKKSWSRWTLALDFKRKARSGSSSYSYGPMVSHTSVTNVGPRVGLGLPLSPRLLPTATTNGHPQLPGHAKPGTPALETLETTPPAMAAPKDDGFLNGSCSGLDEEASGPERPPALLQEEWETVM
Experimental: as §1, §2, §3

[3] = molecular target: T3, opossum kidney PTH/PTHrp receptor clone, OK-O (Didelphis virginiana, UniProt P25107, I132F/S86P); test: Intracellular free calcium, COS cells expressing OK-O; settings: FIG. 12
T3 construct: expressed in transfected cells; host or cells: COS cells, transient, plasmid OK-O (pcDNA I)
Experimental: as §1, §2, §3

T3 sequence (P25107 27-585 S86P/I132F): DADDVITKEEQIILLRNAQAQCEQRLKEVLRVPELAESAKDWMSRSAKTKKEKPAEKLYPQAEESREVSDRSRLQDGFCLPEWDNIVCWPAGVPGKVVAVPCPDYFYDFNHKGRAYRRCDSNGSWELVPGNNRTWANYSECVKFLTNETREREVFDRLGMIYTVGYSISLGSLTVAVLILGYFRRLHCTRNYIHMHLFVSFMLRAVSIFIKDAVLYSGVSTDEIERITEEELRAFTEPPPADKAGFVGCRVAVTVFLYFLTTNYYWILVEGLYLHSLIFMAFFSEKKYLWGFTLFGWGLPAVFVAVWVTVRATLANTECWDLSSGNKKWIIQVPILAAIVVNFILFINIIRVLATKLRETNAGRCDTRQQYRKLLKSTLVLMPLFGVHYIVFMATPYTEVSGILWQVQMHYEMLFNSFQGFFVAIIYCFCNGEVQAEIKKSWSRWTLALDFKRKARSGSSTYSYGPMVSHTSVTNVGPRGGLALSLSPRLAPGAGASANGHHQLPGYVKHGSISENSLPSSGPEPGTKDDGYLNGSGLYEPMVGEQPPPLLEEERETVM

## [Nle^8,18, Tyr^34]bPTH(1-34)amide
[1]
  increase in intracellular free calcium, PTH(1-34) compared with PTHrP(1-36): to the same extent
[2]
  increase in intracellular free calcium, PTH(1-34) compared with PTHrP(1-36): to the same extent
[3]
  increase in intracellular free calcium: increase
